From the METLIN SMRT retention time set (Domingo-Almenara et al. 2019) come the findings set out here.

Structures are written as SMILES.

This data set in a line: gradient 5% acetonitrile 3 min, to 50% in 2 min, to 85% in 15 min, held 3 min, 100 µL/min. As to conditions: column: Zorbax Extend-C18 2.1 x 50 mm; eluents: water / acetonitrile, 0.1% formic acid. A digest of the protocol: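 Retention times come from adduct peaks that were picked computationally and then checked by hand. The standards, pure and pooled in mixtures of ~100 molecules, were run on a Zorbax Extend-C18 column (2.1 × 50 mm, 1.8 μm) at 100 μL/min with water and acetonitrile, each with 0.1% formic acid. Detection was by quadrupole time-of-flight mass spectrometry in positive and negative ionization mode, with a dead volume of 40 μL and a dwell volume of 900 μL.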
Turning to `CCS(=O)(=O)N1CCC(C(=O)NCCc2csc(-c3ccccc3)n2)CC1`, the RP-LC retention time was 765 s.
In turn, `COc1ccc(-c2noc(Cc3nc(-c4cc(C)c(C)cc4C)cs3)n2)cc1` showed an RP-LC retention time of 1340 s.
Under `O=C(NCCc1ccccc1)c1ccc2c(c1)CCN2C(=O)C1CC1` stands 814 s.
As for `Cc1ccc(NC(=O)C2CCCN(S(=O)(=O)c3cn(C(C)C)cn3)C2)cc1C` (stereo not drawn), the figure is 829 s; as for `CCn1c(C(=O)Nc2ccc(C)cc2C)cc2sc(Cl)cc21`, 1240 s.
As for `O=C(Cc1cccs1)Nc1ccc2c(c1)CCC(=O)N2`, the figure is 620 s.
For the compound `O=C(c1ccccc1N1C(=O)c2cccc3cccc(c23)C1=O)N1CCOCC1`, the RP-LC retention time worked out at 692 s.
`CCOc1ccc(NC(=O)C2CCN(S(C)(=O)=O)c3cc(C)ccc3O2)cc1` (stereo not drawn) gave an RP-LC retention time of 972 s.
Under `CN(C)S(=O)(=O)c1ccc2c(c1)N(CC(=O)Nc1ccc(Cl)cc1)C(=O)C1CCCCN21` (stereo not drawn) stands 988 s.
For `Cc1ccc(NC(=O)N2CCN(c3nc(N)nc4sc(-c5cccnc5)nc34)CC2)cc1`, the RP-LC retention time amounted to 799 s.
As for `Cc1cccc(OCC(=O)Nc2nnc(C3CC(=O)N(c4ccccc4)C3)o2)c1C` (stereo not drawn), the figure is 726 s.
As for `O=C(Nc1ccccc1C(F)(F)F)N1CCCC1c1nc(-c2ccc(F)cc2F)no1` (stereo not drawn), the figure is 1030 s; as for `O=C1NC2(CCN(C(=O)c3ccc4c(c3)OCO4)CC2)N=C1c1cccc(Cl)c1`, 835 s.
Compound `COC(=O)c1c(C)[nH]c(C(=O)N2CCC(CC(=O)NCCN3CCCCC3)CC2)c1C` showed an RP-LC retention time of 584 s.
With `Cc1ccc(NC(=O)c2cnc3c(c2)c(=O)n(C)c(=O)n3-c2ccccc2)cc1`, the RP-LC retention time came to 919 s.
As for `O=c1c2sccc2n(Cc2nc(-c3ccc(F)cc3)no2)c(=O)n1Cc1ccccc1Cl`, the figure is 1160 s.
The compound `COc1cccc(-c2[nH]ncc2CN2CCC3(CCC3O)CC2)c1` (stereo not drawn) had an RP-LC retention time of 586 s.
As for `Cc1c(C2CCN(C(=O)NCCc3ccccc3)CC2)noc1N`, the figure is 700 s.
For the compound `Cc1ccc(C(=O)Nc2cnc(-c3ccc(Cl)cc3)nc2)s1`, the RP-LC retention time stood at 1130 s.
Under `CCS(=O)(=O)c1ccc2c(c1)N(Cc1nc(-c3cccc(Br)c3)no1)C(=O)CO2` stands 988 s.
Under `O=C(Cn1nc2n(c1=O)CCCCC2)Nc1ccc(C(F)(F)F)cc1` stands 764 s; under `COc1cc(NC(=O)N2CCN(Cc3ccccc3)c3ncccc32)cc(OC)c1OC`, 665 s.
Under `Cc1ccc(-c2nc(-c3ccc(-c4noc(CNC(=O)c5ccccc5)n4)cc3)cs2)s1` stands 1250 s; under `c1ccc(-c2nc(-c3ccncc3)no2)c(OC2CCNC2)c1` (stereo not drawn), 604 s.
Take `COc1ccc(-c2nnc(COc3ccc(NC(=O)CSc4ccncc4)cc3)o2)cc1`: the RP-LC retention time was 650 s.
Under `CCOc1ccc(C(=O)NC2(c3nc(CC)no3)CCCCC2)cc1OCC` stands 990 s.
Under `Cc1c(Cl)cccc1Nc1c(-c2cccc(O)c2)nc2cnccn12` stands 813 s.
As for `Cc1cc(C)c2[nH]c3c(c(=O)c2c1)CN(CC(=O)NCc1ccc(F)cc1)CC3`, the figure is 620 s; as for `O=C(c1ccc(N2CCN(c3ncccn3)CC2)nn1)N1CCc2ccccc21`, 784 s.
In turn, `CCN1CCN(CCNC(=O)c2cc3n(n2)CCCN(Cc2ccc(F)cc2)C3=O)CC1` showed an RP-LC retention time of 593 s.
Under `CCn1cc(-c2nc(C(=O)NCc3ccc(F)cc3Cl)cs2)c2cccnc21` stands 1070 s.
The compound `N#CCSc1nnc2ccc3ccccc3n12` gave an RP-LC retention time of 639 s.
Under `CC(=O)N1c2ccc(S(=O)(=O)N3CCCCC3)cc2CC1C(=O)NCCN(C)Cc1ccccc1` (stereo not drawn) stands 676 s; under `COc1cccc(Cn2c(=O)c3sccc3n(Cc3nc(-c4ccc(C)c(C)c4)no3)c2=O)c1`, 1200 s.
As for `COc1ccc2[nH]c3c(c2c1)CCN1C(=O)N(c2cccc(Cl)c2)C(=O)C31C` (stereo not drawn), the figure is 1030 s; as for `CCN(C(=O)C1CCN(C(=O)c2cccc(F)c2)CC1)C1CCCCC1`, 855 s; as for `Cc1ccc(C)c(N2CCN(c3ccc4cc(S(=O)(=O)N5CCCCC5)ccc4n3)CC2)c1`, 1360 s.
As for `COc1ccc(OC)c(CCNC(=O)c2c(N3CCCC3=O)c3cc(OC)ccc3n2C)c1`, the figure is 867 s.
The compound `COc1cccc(N2C(=O)C3N=NN(c4ccc(C)c(F)c4)C3C2=O)c1` (stereo not drawn) had an RP-LC retention time of 1110 s.
As for `Cc1ccccc1-c1ccc(N2CCN(C(=O)NC3CCCCC3)CC2)nn1`, the figure is 631 s; as for `CN(C)C[C@@H]1CN(c2ncccn2)C[C@H]1NS(=O)(=O)Cc1ccccc1`, 601 s; as for `O=C(Cc1c[nH]c2ncccc12)NC1CCN(Cc2ccccc2)CC1`, 736 s.
`CCn1ccc(C(=O)N2CCCC2(CO)Cc2ccccc2)n1` (stereo not drawn) yielded an RP-LC retention time of 790 s.
Under `Cn1nc(C(=O)N2CCCC(C(=O)Nc3ccccc3)C2)c2c1CCN(C(=O)c1ccco1)C2` (stereo not drawn) stands 717 s; under `CCOc1ccc(C2C(=O)N(C3CCCCC3)CC(=O)N2Cc2ccco2)cc1OC` (stereo not drawn), 879 s; under `N#Cc1ccc(S(=O)(=O)N2CCC(Cc3nc(-c4ccncc4)n[nH]3)C2)cc1` (stereo not drawn), 620 s.
Compound `Cc1ccc(Nc2c(-c3ccccc3Cl)nc3ccc(Br)cn23)cc1` came in with an RP-LC retention time of 1110 s.
Under `Cc1ccc(C(=O)N2CC=C(C(=O)NC3CC3)CC2)cc1C` stands 797 s.
As for `COc1cccc(CNC(=O)N2c3ccccc3CC2c2nc(C(C)C)no2)c1` (stereo not drawn), the figure is 1000 s; as for `COc1ccccc1CC(=O)Nc1ccc(-c2nc(Cn3nc(C)cc3C)c(C)o2)cc1`, 924 s; as for `CC(=O)c1sc(NC(=O)c2cc(Cl)sc2Cl)nc1-c1ccccc1`, 1080 s.
As for `CCn1cc(S(=O)(=O)N2CCC(c3noc(-c4ccccc4)n3)C2)cn1` (stereo not drawn), the figure is 881 s; as for `O=C(Nc1ccc2nc(N3CCN(C4CCCCC4)CC3)cc(C(=O)O)c2c1)c1ccc(F)cc1`, 625 s.
In the case of `CCN1CCn2cc(S(=O)(=O)N3CCN(c4ccccc4F)CC3)cc2C1=O`, the RP-LC retention time is 826 s.
As for `CCSc1ccccc1C(=O)NCCCn1cccc1`, the figure is 791 s; as for `COc1cc(Nc2ncc(C(=O)O)c(C(C)C)n2)cc(OC)c1`, 892 s.
Under `COc1ccc(C2CCCN2C(=O)c2ccnn2C)cc1` (stereo not drawn) stands 722 s.
Under `COC(=O)c1ccc(NC(=O)C2CCCN(c3nc4ccccc4nc3OC)C2)cc1` (stereo not drawn) stands 1120 s.
Turning to `CCN1c2ccc(C)cc2C(=O)NC12CCN(C(=O)c1cccc(F)c1)CC2`, the RP-LC retention time worked out at 835 s.
As for `CS(=O)(=O)Nc1ccc(C2(C(=O)NCc3ccccn3)CCCCC2)cc1`, the figure is 620 s; as for `CC(C)Cn1ccc2c(cc(C(=O)NCc3cccc(Br)c3)n2C)c1=O`, 901 s; as for `CCn1cc(-c2nc(CC(=O)Nc3cc(C)ccc3F)cs2)c2cccnc21`, 1040 s.
As for `COC(=O)c1cc(S(=O)(=O)N2CCCC2C(=O)NCc2ccc(Cl)cc2)cn1C` (stereo not drawn), the figure is 865 s.
Under `COc1cccc(Nc2c(-c3ccc(OC)c(OC)c3)nc3cnccn23)c1` stands 794 s; under `CCCn1c(=O)c2c(nc3n2CCN3c2ccc(OC)cc2)n(C)c1=O`, 834 s.
In turn, `O=C(NC1CCCCCC1)C1CCCN(S(=O)(=O)c2c[nH]c(C(=O)N3CCCCCC3)c2)C1` (stereo not drawn) registered an RP-LC retention time of 926 s.
Under `CCOC(=O)C(=O)NCC1CCCN1S(=O)(=O)c1ccc(OC)cc1` (stereo not drawn) stands 700 s.
As for `Cn1nc(-c2nnc(-c3ccc(F)cc3)o2)c2c1CCN(S(=O)(=O)c1cc(F)cc(F)c1)C2`, the figure is 922 s; as for `COc1ccc2c(c1)C1(CCN(S(=O)(=O)c3ccc(F)cc3F)C1)C(=O)N2C` (stereo not drawn), 927 s; as for `Cc1ccc(-c2nnc(N3CCC(C(=O)NC(C)c4ccccc4)CC3)o2)cc1` (stereo not drawn), 886 s.
`CN(C)S(=O)(=O)c1ccc(-c2nnc(C(=O)NCCC3=CCCCC3)o2)cc1` registered an RP-LC retention time of 941 s.
As to `Cc1cccc2nnc(N3CCCC(C(=O)NCCC(C)C)C3)n12` (stereo not drawn), the RP-LC retention time is 586 s.
`COc1cccc(N2CCN(C(=O)Cn3ccc4c(c(C)nn4-c4ccccc4)c3=O)CC2)c1` had an RP-LC retention time of 828 s.
As for `Cc1cc2c(cc1S(=O)(=O)N1CCCC1C(=O)Nc1ccccc1F)OC(C)C(=O)N2` (stereo not drawn), the figure is 809 s; as for `Fc1ccc(Nc2c(-c3ccccc3)nc3cnccn23)cc1`, 844 s; as for `O=C(NCCc1ccccc1)N1CCCn2nc(-c3cccs3)cc2C1`, 805 s.
Under `O=C1[C@@H]2[C@H]3CC[C@H](C3)[C@@H]2C(=O)N1C[C@@H]1CCCC[C@H]1CN1CCN(c2nsc3ccccc23)CC1` stands 884 s.
As for `COc1cc(NC(=O)CCc2c(-c3ccc(F)cc3)nc3ccccn23)cc(OC)c1`, the figure is 672 s.
